Measured values published in publication PMC6173509, “C-3- and C-4-Substituted Bicyclic Coumarin Sulfamates as Potent Steroid Sulfatase Inhibitors” (ACS Omega, 2018).
pIC50: −log10 of the molar value.

Assays:
[1] = parameters: method as in PMID 18288656, PMID 18288656, PMID 24604234; details: rats; ref 12a, 12b, 14; cited from earlier work
[2] = rodent; cited from earlier work
steroid sulfatase (STS) [3] = molecular target: T1, steroid sulfatase (STS) (Homo sapiens, UniProt P08842); parameters: endogenous in cells; host or cells: MCF-7 breast cancer cells; details: cited from earlier work
T1 sequence (P08842 22-583): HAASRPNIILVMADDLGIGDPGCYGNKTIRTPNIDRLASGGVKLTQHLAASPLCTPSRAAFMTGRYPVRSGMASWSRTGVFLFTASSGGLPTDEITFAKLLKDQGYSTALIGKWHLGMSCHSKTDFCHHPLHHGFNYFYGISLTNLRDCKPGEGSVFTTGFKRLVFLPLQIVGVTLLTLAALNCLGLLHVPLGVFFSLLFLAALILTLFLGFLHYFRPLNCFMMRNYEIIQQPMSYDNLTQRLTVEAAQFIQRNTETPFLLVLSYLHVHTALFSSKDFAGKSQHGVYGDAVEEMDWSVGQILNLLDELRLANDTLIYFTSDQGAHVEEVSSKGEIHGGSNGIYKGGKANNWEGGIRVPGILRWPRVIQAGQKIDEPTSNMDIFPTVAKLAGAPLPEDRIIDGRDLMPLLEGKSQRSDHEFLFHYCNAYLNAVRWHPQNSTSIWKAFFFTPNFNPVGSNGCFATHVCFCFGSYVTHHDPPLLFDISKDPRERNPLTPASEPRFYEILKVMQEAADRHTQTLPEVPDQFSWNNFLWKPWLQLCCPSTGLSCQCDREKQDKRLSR

steroid sulfatase (STS) [4] = molecular target: T1, steroid sulfatase (STS); parameters: a placental microsomal preparation from a sulfatase-positive human placenta from a normal term pregnancy; from tissue; host or cells: human placenta (microsomal preparation); details: cited from earlier work; for % Inhibition of STS Activity in Placental Microsomes at 0.1 μM: 0.1 μM inhibitor; for % Inhibition of STS Activity in Placental Microsomes at 1 μM: 1 μM inhibitor; for % Inhibition of STS Activity in Placental Microsomes at 10 μM: 10 μM inhibitor
steroid sulfatase (STS) [5] = molecular target: T1, steroid sulfatase (STS); experiment: STS inhibition in intact MCF-7 breast cancer cells; type: cell-based; parameters: endogenous in cells; host or cells: MCF-7 breast cancer cells; details: for inhibition at 0.1 µM: MCF7, read-out: % Inhibition of STS Activity in Intact MCF-7 Breast Cancer Cells at 0.1 μM; for inhibition at 1 µM: MCF7, read-out: % Inhibition of STS Activity in Intact MCF-7 Breast Cancer Cells at 1 μM; for inhibition at 10 µM: MCF7, read-out: % Inhibition of STS Activity in Intact MCF-7 Breast Cancer Cells at 10 μM; for pIC50: 3 nM E1S; for inhibition at 0.01 µM: MCF7, read-out: % Inhibition of STS Activity in Intact MCF-7 Breast Cancer Cells at 0.01 μM
steroid sulfatase (STS) [6] = molecular target: T1, steroid sulfatase (STS); experiment: STS inhibition in placental microsomes; type: biochemical; parameters: a placental microsomal preparation from a sulfatase-positive human placenta from a normal term pregnancy; from tissue; host or cells: human placenta (microsomal preparation); details: 20 μM E1S; for inhibition at 0.01 µM: 0.01 μM inhibitor; for inhibition at 0.1 µM: 0.1 μM inhibitor; for inhibition at 1 µM: 1 μM inhibitor; for inhibition at 10 µM: 10 μM inhibitor

In the case of C[C@]12CC[C@@H]3c4ccc(OS(N)(=O)=O)cc4CC[C@H]3[C@@H]1CCC2=O [compound 1, estrone-3-O-sulfamate], the estrogenicity [1] is listed as “highly estrogenic”.
For Cc1cc(=O)oc2cc(OS(N)(=O)=O)ccc12 [compound 3, 4-methylcoumarin-7-O-sulfamate], the estrogenic activity [2] is given as “no rodent estrogenic activity”, the “% Inhibition of STS Activity in Intact MCF-7 Breast Cancer Cells at 0.01 μM” value (steroid sulfatase (STS) [3]; 0.01 μM inhibitor) is given as less than 10% and the “% Inhibition of STS Activity in Intact MCF-7 Breast Cancer Cells at 0.1 μM” value (steroid sulfatase (STS) [3]; 0.1 μM inhibitor) is given as 43%. The “% Inhibition of STS Activity in Placental Microsomes at 0.1 μM” value (steroid sulfatase (STS) [4]) was less than 10% and the “% Inhibition of STS Activity in Placental Microsomes at 1 μM” value (“% Inhibition of STS Activity … at 1 μM” below) (steroid sulfatase (STS) [4]) was 63%.
In the case of CCc1cc(=O)oc2cc(OS(N)(=O)=O)ccc12 [compound 4], the “% Inhibition of STS Activity in Placental Microsomes at 0.1 μM” value (steroid sulfatase (STS) [4]) is listed as 35%, the “% Inhibition of STS Activity … at 1 μM” value (steroid sulfatase (STS) [4]) is listed as 88% and the “% Inhibition of STS Activity in Placental Microsomes at 10 μM” value (“% Inhibition of STS Activity … at 10 μM” below) (steroid sulfatase (STS) [4]) is listed as greater than 99%.
For CCCc1cc(=O)oc2cc(OS(N)(=O)=O)ccc12 [compound 5], the “% Inhibition of STS Activity in Placental Microsomes at 0.1 μM” value (steroid sulfatase (STS) [4]) is given as 42%, the “% Inhibition of STS Activity … at 1 μM” value (steroid sulfatase (STS) [4]) is given as 94% and the “% Inhibition of STS Activity … at 10 μM” value (steroid sulfatase (STS) [4]) is given as 96%.
For CCc1c(C)c2ccc(OS(N)(=O)=O)cc2oc1=O [compound 7], the “% Inhibition of STS Activity in Placental Microsomes at 0.1 μM” value (steroid sulfatase (STS) [4]) is listed as 57%, the “% Inhibition of STS Activity … at 1 μM” value (steroid sulfatase (STS) [4]) is listed as 96% and the “% Inhibition of STS Activity … at 10 μM” value (steroid sulfatase (STS) [4]) is listed as greater than 99%.
In the case of CCCc1c(C)c2ccc(OS(N)(=O)=O)cc2oc1=O [compound 8], the “% Inhibition of STS Activity in Placental Microsomes at 0.1 μM” value (steroid sulfatase (STS) [4]) is listed as 83%, the “% Inhibition of STS Activity … at 1 μM” value (steroid sulfatase (STS) [4]) is listed as 97% and the “% Inhibition of STS Activity … at 10 μM” value (steroid sulfatase (STS) [4]) is listed as greater than 99%.
In the case of CCCCCCCc1c(C)c2ccc(OS(N)(=O)=O)cc2oc1=O [compound 30, 3-Heptyl-4-methylcoumarin-7-O-sulfamate], the inhibition at 0.1 µM (steroid sulfatase (STS) [5]) was 99%, the inhibition at 1 µM (steroid sulfatase (STS) [5]) was 100% and the inhibition at 10 µM (steroid sulfatase (STS) [5]) was 100%. For the same compound, the inhibition at 0.01 µM (steroid sulfatase (STS) [6]) was 23%, the inhibition at 0.1 µM (steroid sulfatase (STS) [6]) was 65% and the inhibition at 1 µM (steroid sulfatase (STS) [6]) was 97%. It also gave an inhibition at 10 µM (steroid sulfatase (STS) [6]) of 99%.
For CCCCCCCCc1c(C)c2ccc(OS(N)(=O)=O)cc2oc1=O [compound 31, 4-Methyl-3-octylcoumarin-7-O-sulfamate], the inhibition at 0.1 µM (steroid sulfatase (STS) [5]) was 99%, the inhibition at 1 µM (steroid sulfatase (STS) [5]) was 100% and the inhibition at 10 µM (steroid sulfatase (STS) [5]) was 100%. The inhibition at 0.01 µM (steroid sulfatase (STS) [6]) was 21%, the inhibition at 0.1 µM (steroid sulfatase (STS) [6]) was 71% and the inhibition at 1 µM (steroid sulfatase (STS) [6]) was 98%. The inhibition at 10 µM (steroid sulfatase (STS) [6]) was 99%.
For CCCCCCCCCc1c(C)c2ccc(OS(N)(=O)=O)cc2oc1=O [compound 32, 4-Methyl-3-nonylcoumarin-7-O-sulfamate], the pIC50 (steroid sulfatase (STS) [5]) was roughly 8.00, the inhibition at 0.01 µM (steroid sulfatase (STS) [5]) was 57% and the inhibition at 0.1 µM (steroid sulfatase (STS) [5]) was 96%. For the same compound, the inhibition at 1 µM (steroid sulfatase (STS) [5]) was 99%, the inhibition at 10 µM (steroid sulfatase (STS) [5]) was 99% and the inhibition at 0.01 µM (steroid sulfatase (STS) [6]) was 21%. The inhibition at 0.1 µM (steroid sulfatase (STS) [6]) was 85%, the inhibition at 1 µM (steroid sulfatase (STS) [6]) was 97% and the inhibition at 10 µM (steroid sulfatase (STS) [6]) was 98%.
Compound CCCCCCCCCCc1c(C)c2ccc(OS(N)(=O)=O)cc2oc1=O [compound 33, 3-Decyl-4-methylcoumarin-7-O-sulfamate] has a pIC50 (steroid sulfatase (STS) [5]) greater than 8.00, an inhibition at 0.01 µM (steroid sulfatase (STS) [5]) of 80% and an inhibition at 0.1 µM (steroid sulfatase (STS) [5]) of 97%. It also gave an inhibition at 1 µM (steroid sulfatase (STS) [5]) of 99%, an inhibition at 10 µM (steroid sulfatase (STS) [5]) of 97% and an inhibition at 0.01 µM (steroid sulfatase (STS) [6]) of 3%. The inhibition at 0.1 µM (steroid sulfatase (STS) [6]) was 33%, the inhibition at 1 µM (steroid sulfatase (STS) [6]) was 79% and the inhibition at 10 µM (steroid sulfatase (STS) [6]) was 94%. The pIC50 (steroid sulfatase (STS) [6]) was 6.60.
Work on Cc1c(-c2ccccc2)c(=O)oc2cc(OS(N)(=O)=O)ccc12 [compound 40, 4-Methyl-3-phenylcoumarin-7-O-sulfamate] yielded a pIC50 (steroid sulfatase (STS) [5]) of 7.60, an inhibition at 0.01 µM (steroid sulfatase (STS) [5]) of 32% and an inhibition at 0.1 µM (steroid sulfatase (STS) [5]) of 75%. For the same compound, the inhibition at 0.01 µM (steroid sulfatase (STS) [6]) was 8%, the inhibition at 0.1 µM (steroid sulfatase (STS) [6]) was 65% and the inhibition at 1 µM (steroid sulfatase (STS) [6]) was 95%. For the same compound, the inhibition at 10 µM (steroid sulfatase (STS) [6]) was 99% and the pIC50 (steroid sulfatase (STS) [6]) was 7.27.
Compound Cc1c(Cc2ccccc2)c(=O)oc2cc(OS(N)(=O)=O)ccc12 [compound 41, 3-Benzyl-4-methylcoumarin-7-O-sulfamate] has an inhibition at 0.01 µM (steroid sulfatase (STS) [5]) of 85%, an inhibition at 0.1 µM (steroid sulfatase (STS) [5]) of 91% and an inhibition at 1 µM (steroid sulfatase (STS) [5]) of 94%. For the same compound, the inhibition at 10 µM (steroid sulfatase (STS) [5]) was 97%, the inhibition at 0.01 µM (steroid sulfatase (STS) [6]) was 53% and the inhibition at 0.1 µM (steroid sulfatase (STS) [6]) was 94%. The inhibition at 1 µM (steroid sulfatase (STS) [6]) was 99%.
Work on Cc1c(CCc2ccccc2)c(=O)oc2cc(OS(N)(=O)=O)ccc12 [compound 42, 4-Methyl-3-(2-phenylethyl)coumarin-7-O-sulfamate] yielded a pIC50 (steroid sulfatase (STS) [5]) of 8.96, an inhibition at 0.01 µM (steroid sulfatase (STS) [5]) of 93% and an inhibition at 0.1 µM (steroid sulfatase (STS) [5]) of 98%. The inhibition at 1 µM (steroid sulfatase (STS) [5]) was 99%, the inhibition at 0.01 µM (steroid sulfatase (STS) [6]) was 45% and the inhibition at 0.1 µM (steroid sulfatase (STS) [6]) was 91%. The inhibition at 1 µM (steroid sulfatase (STS) [6]) was 99%, the inhibition at 10 µM (steroid sulfatase (STS) [6]) was 100% and the pIC50 (steroid sulfatase (STS) [6]) was 7.48.
With Cc1c(CCCc2ccccc2)c(=O)oc2cc(OS(N)(=O)=O)ccc12 [compound 43, 4-Methyl-3-[3-phenylpropyl]coumarin-7-O-sulfamate] the inhibition at 0.1 µM (steroid sulfatase (STS) [5]) was 87%, the inhibition at 1 µM (steroid sulfatase (STS) [5]) was 99% and the inhibition at 10 µM (steroid sulfatase (STS) [5]) was 100%. The inhibition at 0.1 µM (steroid sulfatase (STS) [6]) was 47% and the inhibition at 1 µM (steroid sulfatase (STS) [6]) was 99%.
